Test results from US20190358264A1, “METHODS OF TREATING DISEASES ASSOCIATED WITH ILC2 CELLS” (Limm Therapeutics, SA, priority 2016, published 2019).

What was measured:
Format in all cases: cell-based, mouse
[1] = system: intestine and lung-derived ILC2s; test: In vitro activation of purified ILC2s with NmU23, type 2 cytokine mRNA by quantitative RT-PCR
Description: For in vitro experiments, purified lung and small intestine lamina propria ILC2s were FBS starved for 2 hours prior to stimulation and cultured in complete RPMI (supplemented with 10% foetal bovine serum (FBS), 1% hepes, sodium pyruvate, glutamine, streptomycin and penicillin) at 37° C. For mRNA analysis, ILC2s were stimulated overnight with recombinant mouse Neuromedin U 23 peptide (NmU23, 100 ng/mL; Phoenix pharmaceuticals). Both NmU23-stimulated and control ILC2s were cultured in the presence of IL-2 and IL-7 (10 ng/mL; Peprotech). ILC2s were lysed using RLT buffer (Qiagen). For cytokine protein analysis, ILC2s were incubated exclusively with brefeldin A (eBioscience) for 12 hours prior to intracellular staining. For in vivo experiments, B6 mice were injected intraperitoneal with NmU23 peptide (2 g/day) during Nippostrongylus brasiliensis infection or with a single dose of NmU23 (20 μg) and analyzed after 8 hours. Control mice were treated with PBS alone. Total RNA was extracted using RNeasy micro kit (Qiagen) according to the manufacturer's protocol. RNA concentration was determined using Nanodrop Spectrophotometer (Nanodrop Technologies). Quantitative real-time RT-PCR was performed as previously described^5,8. Hprt1, Gapdh and Eef1a1 were used as housekeeping genes. For TaqMan assays (Applied Biosystems) RNA was retro-transcribed using a High Capacity RNA-to-cDNA Kit (Applied Biosystems), followed by a pre-amplification PCR using TaqMan PreAmp Master Mix (Applied Biosystems). TaqMan Gene Expression Master Mix (Applied Biosystems) was used in real-time PCR. TaqMan Gene Expression Assays (Applied Biosystems) were the following: Hprt1 Mm00446968_m1; Gapdh Mm99999915_g 1; Eef1a1 Mm01973893_g 1; Il5 Mm00439646_m1; Il13 Mm00434204_m1; Areg Mm01354339_m1; 114 Mm00445259_m1; Csf2 Mm01290062_m1; Gata3 Mm00484683_m1; Rora Mm01173766_m1; Nmu Mm00479868_m1; Nmur1 Mm04207994_m1. Real-time PCR analysis was performed using StepOne Real-Time PCR system (Applied Biosystems).

Ca^2+ influx in ILC2s = test: Calcium signaling (Fluo-4) in purified ILC2s; conditions: NmU23 added 60 seconds after baseline; small intestine ILC2s
Description: Purified ILC2s from the small intestine were cultured with IL-2 and IL-7 (10 ng/mL) and FBS deprived for 6 hours prior to calcium signaling experiments. ILC2s were stained with Fluo-4 Direct Calcium Assay Kit (Thermo Fisher Scientific) according to manufacturer's protocol. Calcium (Ca^2+) influx, represented by the Fluo-4 AM, was recorded over time on a BD Accuri C6 (BD Biosciences) flow cytometer as previously reported^36. The recombinant mouse NmU23 was added 60 seconds after ILC2 baseline recording. Data was represented by the mean values of Ca^2+ influx kinetics between the ILC2 baseline response and the peak of response after recombinant mouse NmU23 addition.

ERK1/2 = test: ERK phosphorylation in purified ILC2s activated with NmU23; conditions: NmU23 100 ng/mL, 10 minutes, with IL-2 and IL-7
Description: Purified ILC2s from small intestine and lung were FBS starved for 2 hours before in vitro activation with NmU23 at 37° C. To test for ERK phosphorylation (Cell Signaling Technology), purified ILC2s were activated with NmU23 (100 ng/mL; Phoenix pharmaceuticals) in the presence of IL-2 and IL-7 (10 ng/mL; Peprotech) for 10 minutes prior to intracellular staining. To test ERK, calcineurin and NFAT activation, ILC2s were cultured for 1 hour with their respective inhibitor and then stimulated with NmU23 overnight before mRNA expression analysis. ERK inhibitor—PD98059 (Sigma); Calcineurin inhibitor—FK506 (Tocris Bioscience); NFAT inhibitor—11R-VIVIT (Tocris Bioscience).

Th2 = test: In vitro stimulation of Th2 cells with NmU23, type 2 cytokine gene expression; conditions: NmU23 100 ng/mL in vitro (FIG. 9f)
Text: FIGS. 9a-9i: FIG. 9a, Nmur1 quantitative RT-PCR analysis in the lungs at day 6 post Nippostrongylus brasiliensis (NB)—infection in lung. Eosinophils (Eo); Mast cells (Mast); Macrophages (Mø); Neutrophils (Neu); naive T cells (T); Innate lymphoid cells type 2 (ILC2). FIG. 9b, NMUR1 expression in human adaptive (CD4 T cells) and innate type 2 lymphocytes ILC2 from blood. FIG. 9c, Type 2 cytokine gene expression in human ILC2 and Th2 after in vitro stimulation with the peptide NmU25. FIG. 9d, Nmur1 expression in lung ILC2 before and after infection (at day 6). FIG. 9e, Nmur1 expression in steady state in Common lymphoid progenitor (CLP); Common helper innate lymphoid progenitor (CHILP), Bone marrow ILC2 progenitor (ILC2P) and Eo, Mast, Mø, Neu, Dendritic cells (DC); naive T cells (T); T-helper 2 cells (Th2); memory T cells, B cells (B), Lamina Propria glial cells (G) and neurons (N). n=3-6. FIG. 9f, Type 2 cytokine gene expression in intestinal ILC2 and Th2 after in vitro stimulation with the peptide NmU23 (100 ng/mL). n=3-6. FIG. 9g, Confocal analysis of intestinal lamina propria. Green: neurons (Ret^GFP); Cyan: KLRG1; red: CD3. […]
Total RNA was extracted using RNeasy micro kit (Qiagen) according to the manufacturer's protocol. RNA concentration was determined using Nanodrop Spectrophotometer (Nanodrop Technologies). Quantitative real-time RT-PCR was performed as previously described^5,8. […]

recombinant mouse Neuromedin U 23 peptide (FKAEYQSPSVGQSKGYFLFRPRN; listed as Mus musculus) [NmU23, NMUR1 agonist neuropeptide, Phoenix pharmaceuticals]
innate Il5 and Il13 gene expression in intestinal ILC2 ([1]; NmU23 100 ng/mL in vitro (FIG. 9f)): immediate innate Il5 and Il13 upregulation
expression of type 2 cytokines genes Il5, Il13, Areg and Csf2 in ILC2s ([1]; NmU23 100 ng/mL overnight, with IL-2 and IL-7, intestine and lung ILC2s): prompt and very potent expression
expression of the master type 2 transcription factor Gata3 in ILC2s ([1]; NmU23 100 ng/mL overnight, intestine and lung ILC2s): increased expression
Ca^2+ influx in ILC2s (Fluo-4 AM intensity) (Ca^2+ influx in ILC2s): immediate and robust Ca^2+ influx
ERK1/2 activation (pERK) in ILC2s (ERK1/2): immediate and efficient ERK1/2 activation
type 2 cytokine gene expression in adaptive T cell counterparts (Th2) (Th2): unperturbed
